This note sets out measurements from the METLIN SMRT retention time set (Domingo-Almenara et al. 2019).

This series can be described thus: gradient 5% acetonitrile 3 min, to 50% in 2 min, to 85% in 15 min, held 3 min, 100 µL/min. The following applies: column: Zorbax Extend-C18 2.1 x 50 mm; eluents: water / acetonitrile, 0.1% formic acid. The essentials:
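Retention times come from adduct peaks that were picked computationally and then checked by hand. The standards, pure and pooled in mixtures of ~100 molecules, were run on a Zorbax Extend-C18 column (2.1 × 50 mm, 1.8 μm) at 100 μL/min with water and acetonitrile, each with 0.1% formic acid. Detection was by quadrupole time-of-flight mass spectrometry in positive and negative ionization mode, with a dead volume of 40 μL and a dwell volume of 900 μL.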
On to `CCc1nnc(NC(=O)CSc2nc3c(c(=O)n2CCOC)SC(C)C3)s1` (configuration not stated), for which the RP-LC retention time turned out to be 664 s. Take `Cc1cc(Nc2ccc(C(=O)NC3CC3)cc2)n2nc(-c3cccnc3)nc2n1`: the RP-LC retention time stood at 612 s. With `CCCc1cc(C2CCCN2C(=O)Nc2ccc(C(=O)OC)cc2)no1` (configuration not stated), the RP-LC retention time was found to be 807 s. For `Cc1nc2cc(-c3noc(-c4ccc(Br)cc4)n3)ccc2n(C)c1=O` the value was 1180 s; for `CCc1nc2c(NC(=O)c3ccccc3)cccn2n1`, 792 s; for `CC(C)CCN1C(=O)C2(NCCc3c2[nH]c2ccccc32)c2cc(Br)ccc21` (configuration not stated), 835 s. `COc1ccc(NC(=O)CSc2nccc(N3CCN(c4cc(C)ccc4C)CC3)n2)cc1OC`: the RP-LC retention time is 774 s. For `Cc1ccc2nc(C(=O)NCc3cccc(Cl)c3)cn2c1` the value was 718 s; for `CCOC(=O)C(C)Oc1ccc2c(c1)O/C(=C\c1cc(Cl)cc3c1OCOC3)C2=O` (configuration not stated), 1160 s; for `CNC(=O)N1CCCC(c2cccc(C(=O)NC3CCCCCC3)c2)C1` (configuration not stated), 820 s. The value for `CC(C)N1CCn2cc(S(=O)(=O)Nc3cccc(F)c3)cc2C1=O` was 751 s; that for `COc1ccc(C(=O)N2CCC3(CC2)N=C(c2ccc(Cl)cc2)NO3)cc1` was 851 s; that for `Cc1ccc(C(=O)NCc2noc(C3CCCC3)n2)cc1` was 842 s. `Cc1nc(-c2cn(C)c3ncccc23)sc1C(=O)NCc1ccccc1Cl` yielded an RP-LC retention time of 942 s. The value for `CSc1ccccc1NC(=O)Cc1cc(-c2ccc(F)cc2)on1` was 919 s.

As to `CCOc1ccc(NC(=O)N2CCC3(CC2)NC(=O)c2ccccc2O3)cc1`, the RP-LC retention time was found to be 739 s. The value for `CCN1c2ccccc2C(=O)NC12CCN(C(=O)NCCc1ccccc1)CC2` was 773 s; that for `Cc1cccc2c(C(=O)N(C)C)cc(=O)[nH]c12` was 597 s. The compound `Cc1cc(Nc2ccc(Cl)cc2C)n2ncnc2n1` had an RP-LC retention time of 806 s.

With `NC(=O)c1cc[nH]c1C1CCCN(C(=O)c2cscn2)C1` (configuration not stated), the RP-LC retention time was 579 s. `O=C(Nc1cccc(C(F)(F)F)c1)N1CC(c2nc(-c3cccs3)no2)C1` gave an RP-LC retention time of 917 s. As to `COc1cccc(NC(=O)N(C)CCc2noc(COc3ccc(F)cc3)n2)c1`, the RP-LC retention time is 856 s. Compound `O=C(O)c1nnn(-c2cccc(F)c2)c1-c1cccnc1` yielded an RP-LC retention time of 614 s. The value for `O=C1CC(NC(=O)C2(c3ccc(Cl)cc3)CCCC2)CN1` (configuration not stated) was 678 s; that for `CCOc1ccc(-n2ccnc(NC(=O)Nc3ccccc3)c2=O)cc1` was 981 s; that for `Cc1ccc(-c2nc(NCCC3=CCCCC3)c3ccccc3n2)cc1` was 974 s. Compound `O=C(NC1CC1)[C@@H]1C[C@H](Oc2ccccc2)CN1C(=O)c1cc2ccccc2[nH]1` had an RP-LC retention time of 847 s. With `CCOc1ccccc1C(=O)N1CCC(C(=O)NCC(F)(F)F)CC1`, the RP-LC retention time was 665 s. For `CCSc1nnc(NC(=O)CCc2csc(NC(=O)c3cccs3)n2)s1` the value was 788 s; for `Cc1sc2ccn(Cc3ccc(F)cc3)c(=O)c2c1C(=O)NC1CCCC1`, 919 s.

In turn, `COC(=O)c1c(NCc2cccnc2)c2cccc(Cl)c2[nH]c1=O` registered an RP-LC retention time of 566 s.

In the case of `O=C(CCC1CCCN(c2cc(NC3CC3)ncn2)C1)NCc1cccnc1` (configuration not stated), the RP-LC retention time was 560 s. The value for `Cc1cc(C)n(-c2cc(N3CCCC(C(=O)Nc4cc(C)on4)C3)ncn2)n1` (configuration not stated) was 762 s; that for `O=C(Nc1cccc(OCc2nnc(-c3ccc(Cl)cc3)o2)c1)C1CCC1` was 978 s; that for `c1cc(-c2noc(-c3cccs3)n2)cc(-c2ccn[nH]2)c1` was 903 s. The value for `CC(C)S(=O)(=O)c1cccc(-c2nnc(N)o2)c1` was 589 s; that for `COc1ccc(-c2nnc(-c3ccc(Cl)c(S(=O)(=O)N4CCC(C)CC4)c3)o2)cc1` was 1230 s. For `O=C(c1cn2ccccc2n1)N1CCN(Cc2cccc(F)c2)CC1` the value was 555 s; for `CC(C)CNC(=O)CCC1CCN(c2cc(NC3CC3)ncn2)CC1`, 615 s; for `CC(C)N1CCN(C(=O)C2CCN(c3nc4ccc(-c5ccccc5)nc4s3)CC2)CC1`, 696 s. `CC(=O)N1CCc2nn(CC(=O)N3CCc4ccccc43)c(=O)cc2C1` registered an RP-LC retention time of 639 s.

Regarding `COc1cc(CN2CCCCCC2c2cccs2)ccc1OCC(N)=O` (configuration not stated), the RP-LC retention time was found to be 611 s.

Compound `CSc1ccc(-c2nc3ccc(Br)cn3c2Nc2ccc(C)cc2)cc1` showed an RP-LC retention time of 986 s. The value for `COCCNC(=O)c1nc(Nc2ccc(C)cc2)c2ccccc2n1` was 698 s; that for `Cc1nc(C2CCCN2Cc2ccc(C)s2)n[nH]1` (configuration not stated) was 554 s. With `CC(C)OCCCNC(=O)C1CCCN(c2nc3ccccc3n(Cc3ccccc3)c2=O)C1` (configuration not stated), the RP-LC retention time was 1070 s. The value for `O=C(c1cc(F)ccc1F)N1CCC2(CC1)NC(=O)N(Cc1ccc(Cl)cc1)C2=O` was 890 s. In the case of `O=C(c1cn(-c2ccc(-c3nc(C4CC4)no3)cn2)cn1)N1CCCCCC1`, the RP-LC retention time was determined as 928 s. For `CCN(CC)c1ccc(C2=NNC(=O)CC2C)cc1[N+](=O)[O-]` (configuration not stated) the value was 773 s. The value for `O=C(NCCCn1cccc1)c1cc(-c2ccccc2)on1` was 888 s; that for `CCCc1nc(-n2cccc2)sc1C(=O)Nc1ccc(OC)cc1F` was 1150 s; that for `Cn1c(=O)c2ccn(CC(=O)Nc3ccc(F)cc3Cl)c2n(C)c1=O` was 695 s. For `CCCNC(=O)N(C1CCOCC1)C1CCN(C(=O)c2ccc(C)s2)CC1` the value was 747 s; for `O=C(NC(CO)C(O)c1ccc([N+](=O)[O-])cc1)C(Cl)Cl` (configuration not stated), 735 s. As to `CCC1CCCCN1CCCNC(=O)C1CCN(c2ncnc3onc(C)c23)CC1` (configuration not stated), the RP-LC retention time stood at 579 s. For `Cc1ccc(CN2CC(Oc3ccc(-c4noc(-c5ccncc5)n4)cc3)C2)o1` the value was 681 s; for `CC(C)CN1CCN(S(=O)(=O)c2cc(-c3nnc(C4CC4)o3)co2)CC1`, 622 s; for `COc1ccc(Cl)cc1NC(=O)N1CCN(CCn2c(C(F)(F)F)nc3cccnc32)CC1`, 696 s.

`COCCn1ccc2nc(C)c(C(=O)NCCCc3ccco3)cc2c1=O`: the RP-LC retention time was found to be 665 s. The compound `O=C(O)CCC(=O)Nc1cccc(C(=O)O)c1` returned an RP-LC retention time of 555 s.

The compound `O=C(Nc1ccc(F)c(F)c1)c1c(O)c2cccnc2n(Cc2ccccc2)c1=O` displayed an RP-LC retention time of 1140 s. Regarding `CCS(=O)(=O)N1CCCc2cc(C(=O)NCCC3=CCCCC3)ccc21`, the RP-LC retention time is 987 s. For the compound `Cc1ccc(C2Cn3cnc(C(=O)N4CCC(C(=O)NCc5ccc(F)cc5F)CC4)c3CO2)cc1` (configuration not stated), the RP-LC retention time came out at 830 s. `O=C1CCCc2cc(S(=O)(=O)NCCCN3CCN(c4ccccc4)CC3)ccc2N1` returned an RP-LC retention time of 576 s. With `Cc1ccc(CNC(=O)C2(C)CCCCC(=O)N2)cc1` (configuration not stated), the RP-LC retention time is 685 s.

`COc1ccc(CSc2nccc3c2ccn3CC(=O)N2CCN(c3ccccn3)CC2)cc1` gave an RP-LC retention time of 592 s. For `O=C(CCC1CCCC1)N1CCC(c2noc(-c3ccc(Cl)cc3)n2)CC1` the value was 1320 s; for `CSc1cccc(NC(=O)C(=O)NCC(c2ccc3c(c2)CCCN3C)N2CCCC2)c1` (configuration not stated), 640 s. For `CC(Cc1ccco1)NC(=O)c1ccc2nc(CCc3ccccc3)oc2c1` (configuration not stated) the value was 714 s; for `CCN1CCCn2cc(S(=O)(=O)Nc3ccc(OC)c(Cl)c3)cc2C1=O`, 740 s; for `CCc1nnc(-c2ccc3ccn(CC(=O)Nc4cccc(OC)c4)c3c2)o1`, 839 s. For `CCC(CC)C(=O)Nc1nc(-c2ccc3c(c2)N(C)C(=O)CO3)cs1` the value was 929 s. `CC(C)N1CCN(c2ncc(C(=O)Nc3ccccc3)c(N)n2)CC1` returned an RP-LC retention time of 591 s. `CNC(=O)c1ccc(Nc2c(-c3ccccc3)nc3cnccn23)cc1` gave an RP-LC retention time of 644 s. The compound `O=C(Cc1cccc(Cl)c1)N1CCc2cc(-c3ccno3)ccc21` gave an RP-LC retention time of 1020 s. With `CN1CCCn2nc(C3CCN(S(=O)(=O)c4ccc5c(c4)OCCO5)CC3)cc2C1=O`, the RP-LC retention time was 718 s. For `CCCNc1cc(N2CCCC(CCC(=O)Nc3ccc(OC)c(OC)c3)C2)ncn1` (configuration not stated) the value was 667 s.

The compound `Cc1noc([C@@H]2CN(Cc3cc(F)cc(F)c3)C[C@H]2CO)n1` had an RP-LC retention time of 546 s. `CC(CCNC(=O)Cn1c2ccccc2c2cnn(C)c(=O)c21)N1CCCC1` (configuration not stated) gave an RP-LC retention time of 595 s.

In turn, `CN1C(=O)c2cc(C(=O)NCCN3CCCC3)nn2CC1(C)C(=O)NCc1ccc(F)cc1` (configuration not stated) registered an RP-LC retention time of 580 s. The value for `CCCN1C(=O)CCc2c(C)ncnc21` was 611 s; that for `CCOCCCNC(=O)N1CCN(c2nc3ccccc3n3cccc23)CC1` was 618 s.
